From patent US11498929B2, “Chromenopyrimidine derivatives as phosphatidylinsitol phosphate kinase inhibitors” (Hibercell, Inc., priority 2019, dated 2022)

Assays:
[1] = tested on: MOLM-16; test: MOLM-16 EC50 assay; assay type: cell-based; conditions: MOLM16
[2] = target: T1, PIP4K2 B (GST-tagged PIP4KtypeIIB) (Homo sapiens, UniProt P78356); test: Kinase Assay - PIP4K2 B (inhibition of PIP4K2 B kinase assay); assay type: biochemical; conditions: compounds listed under IC50 bin headings
T1 construct: GST; made in house; host or cells: E. coli
T1 sequence (P78356 1-416): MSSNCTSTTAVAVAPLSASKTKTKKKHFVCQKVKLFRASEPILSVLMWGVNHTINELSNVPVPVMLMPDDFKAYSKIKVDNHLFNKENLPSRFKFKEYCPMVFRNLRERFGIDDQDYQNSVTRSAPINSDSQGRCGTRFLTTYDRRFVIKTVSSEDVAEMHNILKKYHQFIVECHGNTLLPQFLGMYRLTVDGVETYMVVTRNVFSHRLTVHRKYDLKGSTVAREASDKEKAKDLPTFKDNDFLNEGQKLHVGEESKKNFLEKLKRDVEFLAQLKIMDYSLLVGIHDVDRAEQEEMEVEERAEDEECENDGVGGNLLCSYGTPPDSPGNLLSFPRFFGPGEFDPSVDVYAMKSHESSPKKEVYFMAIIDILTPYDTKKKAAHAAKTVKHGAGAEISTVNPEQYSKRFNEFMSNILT
Excerpt: GST tagged PIP4KtypeIIA and B enzymes were overexpressed in E. Coli and purified to >80% homogeneity. Phosphatidyl inositol-5-phosphate (PI5P, Cat. #850152, Avanti Polar Lipids Inc.) was used as the lipid substrate and phosphatidyl ethanolamine (DOPE 18:1, Cat. #850725, Avanti Polar Lipids Inc.) was used as the carrier lipid for assays. Ultrapure ATP and GTP was purchased from Bellbrooke Labs. ADP Glo reagents were obtained from Promega. Transcreener FI reagent was obtained from Bellbrooke labs.
GST-tagged PIP4KtypeIIB (3.4 uL, 2.77 mg/mL) was diluted to 5 mL using HNE buffer to yield 5× enzyme stock (25 nM)
Lipid Preparation: In a 10 mL pyrex glass vial, 1 ug of PI5P and 1 ug of DOPE were suspended in 2.5 mL of HEPES buffer mix and 2.5 mL of H:E buffer. The contents were mixed and sonicated for 3 min to yield a translucent lipid stock.
Compound Preparation: Compounds were stored as 5 mM stocks in neat DMSO as room temperature in glass vials. 5 mM stocks were diluted to 2 mM and then serially diluted (3×) in neat DMSO in 96 well polypropylene plates. From the serially diluted stocks, 3 uL was delivered into 250 uL of 25% DMSO (in water) to generate 5× compound stocks. Typically, the highest compound conc. was 24 uM.
The assay volume was kept at 25 uL. To each well of the reaction plate, 10 uL of lipid stock (1:1 ratio PI5P:DOPE) was delivered. This was followed by the addition of 5 uL of compound in 25% DMSO. Then, to each well, 5 uL of 25 nM (5×) typeIIB enzyme was delivered. The contents were mixed well and incubated for 1 h at 27 C. After 1 h, reaction was initiated by adding 5 uL of 500 uM GTP and the contents were mixed well with a multi-channel pipetteman. The final concentration of the reagents are as follows: 50 mM HEPES, pH 7.3, 10 mM MgCl2, 20 mM NaCl, 0.01% v/v triton-X100, 5% DMSO, 100 uM GTP, 80 uM (2 ug) PI5P, 2 ug DOPE, and 5 nM PIP4KIIB Typically, the highest conc. of compounds was 4.8 uM and the lowest conc. was 0.
After 2 h, the reaction was quenched by adding 25 uL of transcreener FI reagent. The contents were incubated at RT for 1 h and the Fluorescence (Ex:584 Em: 623) was read using Molecular Devices Paradigm plate reader. […] The blanks were averaged and subtracted from all other wells. Using a calibration curve, RFU was converted to uM GDP (product). IC50 was calculated by plotting the residual activity (expressed as % No inhibitor control) vs. log [Inh. conc.]

[3] = target: T2, PIP4K2A (Homo sapiens, UniProt P48426); test: Kinase Assay - PIP4K2 A (inhibition of PIP4K2 A kinase assay); assay type: biochemical; conditions: compounds listed under IC50 bin headings
T2 construct: GST; made in house; host or cells: E. coli
T2 sequence (P48426 1-406): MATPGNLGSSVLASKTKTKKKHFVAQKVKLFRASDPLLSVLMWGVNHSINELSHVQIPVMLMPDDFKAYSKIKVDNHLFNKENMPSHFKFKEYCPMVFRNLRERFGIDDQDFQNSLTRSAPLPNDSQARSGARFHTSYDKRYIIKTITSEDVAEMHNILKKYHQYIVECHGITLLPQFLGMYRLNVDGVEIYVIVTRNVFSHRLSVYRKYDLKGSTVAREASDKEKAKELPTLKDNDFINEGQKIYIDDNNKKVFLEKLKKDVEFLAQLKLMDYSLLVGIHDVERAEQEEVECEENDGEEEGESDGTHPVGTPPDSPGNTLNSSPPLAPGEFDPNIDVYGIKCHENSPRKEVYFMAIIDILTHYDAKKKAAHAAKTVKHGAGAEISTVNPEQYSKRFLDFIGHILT
Description: Dilution series of the compounds were prepared in DMSO at 100 times the final assay concentration (n1=n0/3 in 10 points). The compounds were further diluted to three times the assay concentration in assay buffer (20 mM MOPS pH 7.2, 25 mM magnesium chloride, 0.005% Tween 20). 6 μL of the diluted compounds were added to a 384 well assay plate followed by 9 μL of a mix consisting of 4 nM PIP4K2A (full length protein, SignalChem) and 100 μM PI(5)P diC8 (Tebu-Bio). Enzyme and compounds were pre-incubated at room temperature for 15 minutes.
Then 3 μL of a solution containing 60 μM ATP (Promega) in assay buffer was added to the wells containing compound and enzyme and mixing was performed by pipetting several times. The reaction was incubated at room temperature for 1 h. Then 18 μL of ADP-Glo™ Reagent (Promega) was added to stop the kinase reaction and deplete the unconsumed ATP, mixing was performed by pipetting several times. The plate was incubated at room temperature for 40 minutes before addition of 36 μL of Kinase Detection Reagent (Promega) to convert ADP to ATP and introduce luciferase and luciferin to detect ATP. The reaction was incubated at room temperature for 40 minutes before the luminescence was measured in a in a Victor 3V 1420 multilabel counter (Perkin Elmer).
Percent inhibition of the compounds as compared to dimethyl sulfoxide treated control samples was calculated. Compound concentration versus percent inhibition were fitted to generate IC50 values. […]

EC50 [1] [nM] | IC50 [2] [nM] | IC50 [3] [nM] | Compound
10 to 100 | 10 to 100 | 1 to 10 | CCN(CC)CCNC(=O)N1CCOc2ncc(Nc3ncc4c(n3)C(C)(C)Oc3cc(N5CCCC5=O)ccc3-4)cc21 [Compound 1, N-[2-(diethylamino)ethyl]-7-{[5,5-dimethyl-8-(2-oxopyrrolidin-1-yl)-5H-chromeno[3,4-d]pyrimidin-3-yl]amino}-1H,2H,3H-pyrido[2,3-b][1,4]oxazine-1-carboxamide]
10 to 100 | 1 to 10 | 1 to 10 | CC1(C)Oc2cc(N3CCCC3=O)ccc2-c2cnc(Nc3cnc4c(c3)N(C(=O)NCCN3CCOCC3)CCO4)nc21 [Compound 2, 7-{[5,5-dimethyl-8-(2-oxopyrrolidin-1-yl)-5H-chromeno[3,4-d]pyrimidin-3-yl]amino}-N-[2-(morpholin-4-yl)ethyl]-1H,2H,3H-pyrido[2,3-b][1,4]oxazine-1-carboxamide]
10 to 100 | 1 to 10 | 1 to 10 | C[C@@H]1CCC(=O)N1c1ccc2c(c1)OC(C)(C)c1nc(Nc3cnc4c(c3)N(C(=O)CN(C)C)CCO4)ncc1-2 [Compound 3, (5R)-1-[3-({1-[2-(dimethylamino)acetyl]-1H,2H,3H-pyrido[2,3-b][1,4]oxazin-7-yl}amino)-5,5-dimethyl-5H-chromeno[3,4-d]pyrimidin-8-yl]-5-methylpyrrolidin-2-one]
10 to 100 | 100 to 1000 | 10 to 100 | CCN1CCN(Cc2cncc(Nc3ncc4c(n3)C(C)(C)Oc3cc(N5CCCC5=O)ccc3-4)c2)CC1 [Compound 4, 1-[3-({5-[(4-ethylpiperazin-1-yl)methyl]pyridin-3-yl}amino)-5,5-dimethyl-5H-chromeno[3,4-d]pyrimidin-8-yl]pyrrolidin-2-one]
100 to 1000 | 1 to 10 | ≤ 1 | Cc1cnnn1-c1ccc2c(c1)OC(C)(C)c1nc(Nc3cnc4c(c3)N(C(=O)N(C)C)CCO4)ncc1-2 [Compound 5, 7-{[5,5-dimethyl-8-(5-methyl-1H-1,2,3-triazol-1-yl)-5H-chromeno[3,4-d]pyrimidin-3-yl]amino}-N,N-dimethyl-1H,2H,3H-pyrido[2,3-b][1,4]oxazine-1-carboxamide]
100 to 1000 | 1 to 10 | ≤ 1 | Cc1cnnn1-c1ccc2c(c1)OC(C)(C)c1nc(Nc3cncc(N4CCN(CCO)CC4)c3)ncc1-2 [Compound 6, 2-[4-(5-{[5,5-dimethyl-8-(5-methyl-1H-1,2,3-triazol-1-yl)-5H-chromeno[3,4-d]pyrimidin-3-yl]amino}pyridin-3-yl)piperazin-1-yl]ethan-1-ol]
10 to 100 | 1 to 10 | ≤ 1 | CNC(=O)N1CCOc2ncc(Nc3ncc4c(n3)C(C)(C)Oc3cc(N5CCCC5=O)ccc3-4)cc21 [Compound 7, 7-{[5,5-dimethyl-8-(2-oxopyrrolidin-1-yl)-5H-chromeno[3,4-d]pyrimidin-3-yl]amino}-N-methyl-1H,2H,3H-pyrido[2,3-b][1,4]oxazine-1-carboxamide]
 | 1 to 10 | ≤ 1 | CNC(=O)N1CCOc2ncc(Nc3ncc4c(n3)C(C)(C)Oc3cc(N5C(=O)CC[C@H]5C)ccc3-4)cc21 [Compound 18, 7-({5,5-dimethyl-8-[(2R)-2-methyl-5-oxopyrrolidin-1-yl]-5H-chromeno[3,4-d]pyrimidin-3-yl}amino)-N-methyl-1H,2H,3H-pyrido[2,3-b][1,4]oxazine-1-carboxamide]
 | 1 to 10 | 1 to 10 | C[C@@H]1CCC(=O)N1c1ccc2c(c1)OC(C)(C)c1nc(Nc3cnc4c(c3)N(C(=O)NC3CC3)CCO4)ncc1-2 [Compound 20, N-cyclopropyl-7-({5,5-dimethyl-8-[(2R)-2-methyl-5-oxopyrrolidin-1-yl]-5H-chromeno[3,4-d]pyrimidin-3-yl}amino)-1H,2H,3H-pyrido[2,3-b][1,4]oxazine-1-carboxamide]
 | 10 to 100 | 1 to 10 | CCN(CC)CCOC(=O)N1CCOc2ncc(Nc3ncc4c(n3)C(C)(C)Oc3cc(N5CCCC5=O)ccc3-4)cc21 [Compound 21, 2-(diethylamino)ethyl 7-{[5,5-dimethyl-8-(2-oxopyrrolidin-1-yl)-5H-chromeno[3,4-d]pyrimidin-3-yl]amino}-1H,2H,3H-pyrido[2,3-b][1,4]oxazine-1-carboxylate]
100 to 1000 |  | 1 to 10 | CC1(C)Oc2cc(N3C(=O)CCC34CC4)ccc2-c2cnc(Nc3cccnc3)nc21 [Compound 24, 4-{5,5-dimethyl-3-[(pyridin-3-yl)amino]-5H-chromeno[3,4-d]pyrimidin-8-yl}-4-azaspiro[2.4]heptan-5-one]
100 to 1000 |  | 1 to 10 | CCN(CC)CCN(C)c1cncc(Nc2ncc3c(n2)C(C)(C)Oc2cc(-n4nncc4C)ccc2-3)c1 [Compound 27, N3-[2-(diethylamino)ethyl]-N5-[5,5-dimethyl-8-(5-methyl-1H-1,2,3-triazol-1-yl)-5H-chromeno[3,4-d]pyrimidin-3-yl]-N3-methylpyridine-3,5-diamine]
 | 100 to 1000 | 1 to 10 | CC1(C)Oc2cc(N3CCCC3=O)ccc2-c2cnc(Nc3cncc(CN4CC(F)C4)c3)nc21 [Compound 28, 1-[3-({5-[(3-fluoroazetidin-1-yl)methyl]pyridin-3-yl}amino)-5,5-dimethyl-5H-chromeno[3,4-d]pyrimidin-8-yl]pyrrolidin-2-one]
 | 100 to 1000 | 10 to 100 | CC1(C)Oc2cc(N3CCCC3=O)ccc2-c2cnc(Nc3cncc(OCCN4CC(F)C4)c3)nc21 [Compound 30, 1-[3-({5-[2-(3-fluoroazetidin-1-yl)ethoxy]pyridin-3-yl}amino)-5,5-dimethyl-5H-chromeno[3,4-d]pyrimidin-8-yl]pyrrolidin-2-one]
10 to 100 |  | 10 to 100 | CNCCOc1cncc(Nc2ncc3c(n2)C(C)(C)Oc2cc(N4CCCC4=O)ccc2-3)c1 [Compound 34, 1-[5,5-dimethyl-3-({5-[2-(methylamino)ethoxy]pyridin-3-yl}amino)-5H-chromeno[3,4-d]pyrimidin-8-yl]pyrrolidin-2-one]
